Target: T1, human RORγ-LBD (Homo sapiens, UniProt P51449)
T1 construct: made in house; host or cells: E. coli (BL-21)
T1 sequence (P51449 262-518): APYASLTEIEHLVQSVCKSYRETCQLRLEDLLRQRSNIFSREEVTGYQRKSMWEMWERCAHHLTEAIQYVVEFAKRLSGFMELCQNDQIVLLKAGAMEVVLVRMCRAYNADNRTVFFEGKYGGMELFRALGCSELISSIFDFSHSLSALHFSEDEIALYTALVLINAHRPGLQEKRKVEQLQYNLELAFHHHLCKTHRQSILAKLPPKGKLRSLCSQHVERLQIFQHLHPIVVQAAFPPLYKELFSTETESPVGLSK
Test: ROR gamma coactivator peptide recruitment Alphascreen assay (RORγ-LBD binding to GRIP1 coactivator peptide)
Assay type: biochemical
Settings: 5 nM human RORγ-LBD, 30 nM 7-β-hydroxycholesterol, 50 nM biotinylated GRIP1 coactivator peptide, overnight incubation at room temperature; read-out: result (pIC50, RORγ coactivator peptide recruitment Alphascreen assay) (converted)
In short: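 Alphascreen proximity read-out after overnight room-temperature incubation, yielding pIC50 from 1-in-2 compound series (2.5% DMSO final). Mixture: 50 nM biotin-GRIP1 peptide, 30 nM 7-β-hydroxycholesterol agonist, 5 nM recombinant 6×His:Flag human RORγ-LBD (aa 262-518), 50 mM HEPES pH 7.4.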

Row | SMILES | IC50 [nM]
1 | O=C(CN(Cc1ccc(C(F)(F)F)cc1)C(=O)c1cnn([C@H]2CC[C@H](C(=O)O)CC2)c1C(F)(F)F)c1c(Cl)cccc1Cl [Example 527, trans-4-(4-((2-(2,6-dichlorophenyl)-2-oxoethyl)(4-(trifluoromethyl)benzyl)carbamoyl)-5-(trifluoromethyl)-1H-pyrazol-1-yl)cyclohexanecarboxylic acid] | 8.32
2 | Cc1cc(Cl)c(C(=O)CN(Cc2ccc(C(F)(F)F)cc2)C(=O)c2cnn([C@H]3CC[C@H](C(=O)O)CC3)c2C(F)(F)F)c(Cl)c1 [Example 528, trans-4-(4-((2-(2,6-dichloro-4-methylphenyl)-2-oxoethyl)(4-(trifluoromethyl)benzyl)carbamoyl)-5-(trifluoromethyl)-1H-pyrazol-1-yl)cyclohexanecarboxylic acid] | 4.17
3 | CO[C@H](CN(CC(C)(C)C)C(=O)c1cnn([C@H]2CC[C@H](C(=O)O)CC2)c1C(F)(F)F)c1c(Cl)cc(C)cc1Cl [Example 530, trans-4-(4-(((2S)-2-(2,6-dichloro-4-methylphenyl)-2-methoxyethyl)(2,2-dimethylpropyl)carbamoyl)-5-(trifluoromethyl)-1H-pyrazol-1-yl)cyclohexanecarboxylic acid] | 51.3
4 | CO[C@@H](CN(CC(C)(C)C)C(=O)c1cnn([C@H]2CC[C@H](C(=O)O)CC2)c1C(F)(F)F)c1c(Cl)cc(C)cc1Cl [Example 531, trans-4-(4-(((2R)-2-(2,6-dichloro-4-methylphenyl)-2-methoxyethyl)(2,2-dimethylpropyl)carbamoyl)-5-(trifluoromethyl)-1H-pyrazol-1-yl)cyclohexanecarboxylic acid] | 1070
5 | Cc1cc(Cl)c(C(=O)CN(CC2CCC(C)(C)CC2)C(=O)c2cnn([C@H]3CC[C@](C)(C(=O)O)CC3)c2C(F)(F)F)c(Cl)c1 [Example 532, trans-4-(4-((2-(2,6-dichloro-4-methylphenyl)-2-oxoethyl)((4,4-dimethylcyclohexyl)methyl)carbamoyl)-5-(trifluoromethyl)-1H-pyrazol-1-yl)-1-methylcyclohexanecarboxylic acid] | 7.41
6 | Cc1cc(Cl)c(C(=O)CN(CC2CCCCC2)C(=O)c2cnn([C@H]3CC[C@](C)(C(=O)O)CC3)c2C(F)(F)F)c(Cl)c1 [Example 533, trans-4-(4-((cyclohexylmethyl)(2-(2,6-dichloro-4-methylphenyl)-2-oxoethyl)carbamoyl)-5-(trifluoromethyl)-1H-pyrazol-1-yl)-1-methylcyclohexanecarboxylic acid] | 1.48
7 | CC1(C)CCC(N(CCc2c(Cl)cccc2Cl)C(=O)c2cnn([C@H]3CC[C@H](C(=O)O)CC3)c2C(F)(F)F)CC1 [Example 534, trans-4-(4-((2-(2,6-dichlorophenyl)ethyl)(4,4-dimethylcyclohexyl)carbamoyl)-5-(trifluoromethyl)-1H-pyrazol-1-yl)cyclohexanecarboxylic acid] | 7.94
8 | Cc1cc(Cl)c(C(=O)CN(CC2CCC(C)(C)CC2)C(=O)c2cnn([C@H]3CC[C@H](C(=O)O)CC3)c2C(F)(F)F)c(Cl)c1 [Example 535, trans-4-(4-((2-(2,6-dichloro-4-methylphenyl)-2-oxoethyl)((4,4-dimethylcyclohexyl)methyl)carbamoyl)-5-(trifluoromethyl)-1H-pyrazol-1-yl)cyclohexanecarboxylic acid] | 1.32
9 | Cc1cc(Cl)c(C(=O)CN(C(=O)c2cnn([C@H]3CC[C@H](C(=O)O)CC3)c2C(F)(F)F)[C@H]2C[C@H](C(C)(C)C)C2)c(Cl)c1 [Example 536, trans-4-(4-((2-(2,6-dichloro-4-methylphenyl)-2-oxoethyl)(trans-3-(2-methyl-2-propanyl)cyclobutyl)carbamoyl)-5-(trifluoromethyl)-1H-pyrazol-1-yl)cyclohexanecarboxylic acid] | 9.55
10 | Cc1cc(Cl)c(C(=O)CN(CC2CCCCC2)C(=O)c2cnn([C@H]3CC[C@H](C(=O)O)CC3)c2C(F)(F)F)c(Cl)c1 [Example 537, trans-4-(4-((cyclohexylmethyl)(2-(2,6-dichloro-4-methylphenyl)-2-oxoethyl)carbamoyl)-5-(trifluoromethyl)-1H-pyrazol-1-yl)cyclohexanecarboxylic acid] | 2.24
11 | CC(C)(C)CN(CC(=O)c1c(Cl)cnc2ccccc12)C(=O)c1cnn([C@H]2CC[C@](C)(C(=O)O)CC2)c1C(F)(F)F [Example 538, trans-4-(4-((2-(3-chloro-4-quinolinyl)-2-oxoethyl)(2,2-dimethylpropyl)carbamoyl)-5-(trifluoromethyl)-1H-pyrazol-1-yl)-1-methylcyclohexanecarboxylic acid] | 112
12 | O=C(CN(Cc1ccc(F)cc1)C(=O)c1cnn([C@H]2CC[C@H](C(=O)O)CC2)c1C(F)(F)F)c1c(Cl)cnc2ccccc12 [Example 539, trans-4-(4-((2-(3-chloro-4-quinolinyl)-2-oxoethyl)(4-fluorobenzyl)carbamoyl)-5-(trifluoromethyl)-1H-pyrazol-1-yl)cyclohexanecarboxylic acid] | 89.1
13 | O=C(CN(Cc1ccc(Cl)cc1)C(=O)c1cnn([C@H]2CC[C@H](C(=O)O)CC2)c1C(F)(F)F)c1c(Cl)ccc(F)c1Cl [Example 541, trans-4-(4-((4-chlorobenzyl)(2-(2,6-dichloro-3-fluorophenyl)-2-oxoethyl)carbamoyl)-5-(trifluoromethyl)-1H-pyrazol-1-yl)cyclohexanecarboxylic acid] | 3.16
14 | Cc1cc(Cl)c(C(=O)CN(CC(C)(C)C)C(=O)c2cnn([C@H]3CC[C@H](C(=O)O)CC3)c2C(F)(F)F)c(Cl)n1 [Example 542, trans-4-(4-((2-(2,4-dichloro-6-methyl-3-pyridinyl)-2-oxoethyl)(2,2-dimethylpropyl)carbamoyl)-5-(trifluoromethyl)-1H-pyrazol-1-yl)cyclohexanecarboxylic acid] | 79.4
15 | Cc1cc(Cl)c(C(=O)CN(Cc2ccc(Cl)cc2)C(=O)c2cnn([C@H]3CC[C@H](C(=O)O)CC3)c2C(F)(F)F)c(Cl)n1 [Example 543, trans-4-(4-((4-chlorobenzyl)(2-(2,4-dichloro-6-methyl-3-pyridinyl)-2-oxoethyl)carbamoyl)-5-(trifluoromethyl)-1H-pyrazol-1-yl)cyclohexanecarboxylic acid] | 3.31
16 | Cc1cc(C)n(CCN(Cc2ccc(Cl)cc2)C(=O)c2cnn([C@H]3CC[C@H](C(=O)O)CC3)c2C(F)(F)F)c(=O)c1 [Example 544, trans-4-(4-((4-chlorobenzyl)(2-(4,6-dimethyl-2-oxo-1(2H)-pyridinyl)ethyl)carbamoyl)-5-(trifluoromethyl)-1H-pyrazol-1-yl)cyclohexanecarboxylic acid] | 3630
17 | CC(C)(C)CN(CC(=O)c1c(Cl)cccc1Cl)C(=O)c1cnn([C@H]2CC[C@H](C(=O)O)CC2)c1C(F)(F)F [Example 545, trans-4-(4-((2-(2,6-dichlorophenyl)-2-oxoethyl)(2,2-dimethylpropyl)carbamoyl)-5-(trifluoromethyl)-1H-pyrazol-1-yl)cyclohexanecarboxylic acid] | 4.9
18 | CC1(C)CCC(CN(CCc2c(Cl)cncc2Cl)C(=O)c2cnn([C@H]3CC[C@H](C(=O)O)CC3)c2C(F)(F)F)CC1 [Example 546, trans-4-(4-((2-(3,5-dichloro-4-pyridinyl)ethyl)((4,4-dimethylcyclohexyl)methyl)carbamoyl)-5-(trifluoromethyl)-1H-pyrazol-1-yl)cyclohexanecarboxylic acid] | 11.2
19 | CC(C)(C)CN(CCc1c(Cl)cncc1Cl)C(=O)c1cnn([C@H]2CC[C@H](C(=O)O)CC2)c1C(F)(F)F [Example 547] | 19.5
20 | CC(C)(C)C#CCN(CCc1c(Cl)cncc1Cl)C(=O)c1cnn([C@H]2CC[C@H](C(=O)O)CC2)c1C(F)(F)F [Example 548, trans-4-(4-((2-(3,5-dichloro-4-pyridinyl)ethyl)(4,4-dimethyl-2-pentyn-1-yl)carbamoyl)-5-(trifluoromethyl)-1H-pyrazol-1-yl)cyclohexanecarboxylic acid] | 11.7
21 | CC1(CN(CCc2c(Cl)cncc2Cl)C(=O)c2cnn([C@H]3CC[C@H](C(=O)O)CC3)c2C(F)(F)F)CCCCC1 [Example 549, trans-4-(4-((2-(3,5-dichloro-4-pyridinyl)ethyl)((1-methylcyclohexyl)methyl)carbamoyl)-5-(trifluoromethyl)-1H-pyrazol-1-yl)cyclohexanecarboxylic acid] | 1.74
22 | CC1(C)CCC(N(CCc2c(Cl)cncc2Cl)C(=O)c2cnn([C@H]3CC[C@H](C(=O)O)CC3)c2C(F)(F)F)CC1 [Example 550, trans-4-(4-((2-(3,5-dichloro-4-pyridinyl)ethyl)(4,4-dimethylcyclohexyl)carbamoyl)-5-(trifluoromethyl)-1H-pyrazol-1-yl)cyclohexanecarboxylic acid] | 21.4
23 | C[C@@]1(CN(CCc2c(Cl)cncc2Cl)C(=O)c2cnn([C@H]3CC[C@H](C(=O)O)CC3)c2C(F)(F)F)CCCO1 [Example 552, trans-4-(4-((2-(3,5-dichloro-4-pyridinyl)ethyl)(((2S)-2-methyltetrahydro-2-furanyl)methyl)carbamoyl)-5-(trifluoromethyl)-1H-pyrazol-1-yl)cyclohexanecarboxylic acid] | 331
24 | CC1(C)CC(CN(CCc2c(Cl)cncc2Cl)C(=O)c2cnn([C@H]3CC[C@H](C(=O)O)CC3)c2C(F)(F)F)C1 [Example 553, trans-4-(4-((2-(3,5-dichloro-4-pyridinyl)ethyl)((3,3-dimethylcyclobutyl)methyl)carbamoyl)-5-(trifluoromethyl)-1H-pyrazol-1-yl)cyclohexanecarboxylic acid] | 2.75

Reference: patent US9365522B2, “Pyrazole amide derivative” (AMGEN INC., priority 2015, dated 2016)
